Data published in the supplement of paper PMC10307832.

Assays:
Assay in all cases: relative viability (nuclei count vs DMSO), 5 days (fraction); higher = more cells survive
NCI-H1975 = tested on: NCI-H1975
How it was run: (§1)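 Five library-drug doses in √10 steps were combined with a fixed anchor-drug dose, or a single drug was given alone, by pin tool to lung cancer cell lines in 1536-well plates the day after seeding. Nuclei were stained and counted after 5 days. Relative viability is the nuclei count in treated wells over that in vehicle wells, taken as the median of duplicate plates.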

EPLC-272H = tested on: EPLC-272H
How it was run: as §1

NCI-H2126 = tested on: NCI-H2126
How it was run: as §1

NCI-H1755 = tested on: NCI-H1755
How it was run: as §1

HCC-78 = tested on: HCC-78
How it was run: as §1

ChaGo-K-1 = tested on: ChaGo-K-1
How it was run: as §1

NCI-H358 = tested on: NCI-H358
How it was run: as §1

NCI-H2023 = tested on: NCI-H2023
How it was run: as §1

HCC-15 = tested on: HCC-15
How it was run: as §1

HOP-62 = tested on: HOP-62
How it was run: as §1

NCI-H3122 = tested on: NCI-H3122
How it was run: as §1

Structure (SMILES): Nc1ccn([C@@H]2O[C@H](CO)[C@@H](O)[C@@H]2O)c(=O)n1 [Cytarabine] + CC(=O)Nc1cccc(-n2c(=O)n(C3CC3)c(=O)c3c(Nc4ccc(I)cc4F)n(C)c(=O)c(C)c32)c1 [Trametinib] (partner 0.02 µM)
- relative viability (NCI-H1975; first compound 0.005 µM): 0.34
- relative viability (NCI-H1975; first compound 0.01581 µM): 0.267
- relative viability (NCI-H1975; first compound 0.05 µM): 0.631
- relative viability (NCI-H1975; first compound 0.1581 µM): 0.25
- relative viability (NCI-H1975; first compound 0.5 µM): 0.24
- relative viability (EPLC-272H; first compound 0.005 µM): 0.302
- relative viability (EPLC-272H; first compound 0.01581 µM): 0.246
- relative viability (EPLC-272H; first compound 0.05 µM): 0.283
- relative viability (EPLC-272H; first compound 0.1581 µM): 0.211
- relative viability (EPLC-272H; first compound 0.5 µM): 0.22
- relative viability (NCI-H2126; first compound 0.005 µM): 0.575
- relative viability (NCI-H2126; first compound 0.01581 µM): 0.505
- relative viability (NCI-H2126; first compound 0.05 µM): 0.448
- relative viability (NCI-H2126; first compound 0.1581 µM): 0.349
- relative viability (NCI-H2126; first compound 0.5 µM): 0.357
- relative viability (NCI-H1755; first compound 0.005 µM): 0.827
- relative viability (NCI-H1755; first compound 0.01581 µM): 0.76
- relative viability (NCI-H1755; first compound 0.05 µM): 0.681
- relative viability (NCI-H1755; first compound 0.1581 µM): 0.512
- relative viability (NCI-H1755; first compound 0.5 µM): 0.407
- relative viability (HCC-78; first compound 0.005 µM): 1.06
- relative viability (HCC-78; first compound 0.01581 µM): 0.688
- relative viability (HCC-78; first compound 0.05 µM): 0.575
- relative viability (HCC-78; first compound 0.1581 µM): 0.478
- relative viability (HCC-78; first compound 0.5 µM): 0.37
- relative viability (ChaGo-K-1; first compound 0.005 µM): 0.688
- relative viability (ChaGo-K-1; first compound 0.01581 µM): 0.625
- relative viability (ChaGo-K-1; first compound 0.05 µM): 0.504
- relative viability (ChaGo-K-1; first compound 0.1581 µM): 0.308
- relative viability (ChaGo-K-1; first compound 0.5 µM): 0.247
- relative viability (NCI-H358; first compound 0.005 µM): 0.126
- relative viability (NCI-H358; first compound 0.01581 µM): 0.108
- relative viability (NCI-H358; first compound 0.05 µM): 0.103
- relative viability (NCI-H358; first compound 0.1581 µM): 0.076
- relative viability (NCI-H358; first compound 0.5 µM): 0.0812
- relative viability (NCI-H2023; first compound 0.005 µM): 0.463
- relative viability (NCI-H2023; first compound 0.01581 µM): 0.253
- relative viability (NCI-H2023; first compound 0.05 µM): 0.169
- relative viability (NCI-H2023; first compound 0.1581 µM): 0.104
- relative viability (NCI-H2023; first compound 0.5 µM): 0.0963
- relative viability (HCC-15; first compound 0.005 µM): 0.396
- relative viability (HCC-15; first compound 0.01581 µM): 0.281
- relative viability (HCC-15; first compound 0.05 µM): 0.381
- relative viability (HCC-15; first compound 0.1581 µM): 0.362
- relative viability (HCC-15; first compound 0.5 µM): 0.357
- relative viability (HOP-62; first compound 0.005 µM): 0.352
- relative viability (HOP-62; first compound 0.01581 µM): 0.327
- relative viability (HOP-62; first compound 0.05 µM): 0.261
- relative viability (HOP-62; first compound 0.1581 µM): 0.23
- relative viability (HOP-62; first compound 0.5 µM): 0.144
- relative viability (NCI-H3122; first compound 0.005 µM): 0.221
- relative viability (NCI-H3122; first compound 0.01581 µM): 0.252
